Laboratory results from the OligoGym collection.
These antisense oligonucleotides have a phosphorothioate backbone; sugars and methylation of C are not fully specified.

What follows are sequences tested against CD44. Details: ASO.
Note: test concentration or dose not given here.

Sequence	remaining target (mRNA or protein) (fraction of control)
ATAGCACACCCGAGGATG	≥ 1
GGTTGGCGATCAGGAATA	≥ 1
CTGTCTTCGTCTGGGATG	≥ 1
TGAGACTTGCTGGCCTCT	0.93
CGTTGAGTCCACTTGGCT	≥ 1
GTTTCCAACGGTTGTTTC	≥ 1
AAGCCAAGGCCAAGAGGG	≥ 1
GGCCTCTCCGTTGAGTCC	≥ 1
AGCCATCCATAGCACACC	0.97
TCCACTTGGCTTTCTGTC	≥ 1
AGAGGGATGCCAAGATGA	≥ 1
TACACCTGCAAAGCGGCA	≥ 1
GGCAGGTCTGTGACTGAT	≥ 1
AGCCGCTGCTCACGTCAT	≥ 1
CGTCCGAGAGATGCTGTA	0.52
GCCTCCAAGTGGAACTGA	0.99
GATTAGGCTATGGAAGGG	≥ 1
AATGTCCTTAGCTGGTGG	≥ 1
CCCACACCTTCTTCGACT	0.94
TGCAGAGGTCAGCGGCCT	≥ 1
CTGTGCTGTCGGTGATCC	≥ 1

Sequence	remaining target (mRNA or protein) (fraction of control)
GTGGGCAAGGTGCTATTG	≥ 1
ACAGCTCCATTGCCACTG	≥ 1
GCGGCAGGTTATATTCAA	≥ 1
GTGGAGCTGAAGCATTGA	≥ 1
AGATTCGCAATGAAACAA	≥ 1
GACTGTTGACTGCAATGC	≥ 1
GGGCCCTAATTTACAAAG	0.88
TTGACTCCCATGTGAGTG	≥ 1
GCTGCTCCTTTCACTGGA	0.9
GTCTCCCAGAAGCATCTG	≥ 1
CCATTTCCTGAGACTTGC	≥ 1
ACGTGGAATACACCTGCA	≥ 1
TCAAAGGACTGATCCAGG	≥ 1
TTTGCTGCACAGATGGAG	≥ 1
TTGCTCCACCTTCTTGAC	≥ 1
AAATCCGATGCTCAGAGC	≥ 1
TGACTGCAATGCAAACTG	≥ 1
CCAACCTCAGTGGAAAGC	≥ 1
AGTGGAAAGCAATGCCCA	≥ 1
TGGGAGGTGTTGTATGTG	≥ 1
TTTCCTCCCAGGGACCAG	≥ 1

Sequence	remaining target (mRNA or protein) (fraction of control)
CTCAGCGGCACGAGGCAG	0.91
GTGTTGTTTGCTGCACAG	≥ 1
GGTTATGTTTCCAACGGT	≥ 1
CGGAGCGAACGGAGGGCG	≥ 1
GGCACGAGGCAGAGTCCC	≥ 1
GTCCTCCACAGCTCCATT	≥ 1
AAAGGTTGGCGATCAGGA	≥ 1
TAGCGGGTGCCATCACGG	≥ 1
AGGACTGATCCAGGGTTT	0.83
AGAGCTTTCTCCATCTGG	≥ 1
CTGGACATAGCGGGTGCC	≥ 1
AAGGCATTGGGCAGGTCT	0.99
CAACGGTTGTTTCTTTCC	≥ 1
CCTTTGGTGTCTCCCAGA	≥ 1
CCACATGCCCTTCTATGA	0.9
ACCAGGCCCTATTAACCC	≥ 1
TCCATCAAAGGCATTGGG	≥ 1
TCTTGGTCTCTGGTAGCA	≥ 1
TCTTCTGCCCACACCTTC	≥ 1
ATCAGTAGGGTTGCTGGG	≥ 1
GACTTGCTGGCCTCTCCG	≥ 1

Sequence	remaining target (mRNA or protein) (fraction of control)
GTTGTGTTTGCTCCACCT	0.92
ATCCAGGGACTGTCTTCG	≥ 1
TGCTATTGAAAGCCTTGC	≥ 1
GAAAGCCTTGCAGAGGTC	0.9
AGCAATGCCCAGGGATTA	≥ 1
CTTGTTCACCAAATGCAC	≥ 1
ATCCATAGCACACCCGAG	≥ 1
TAAGTGTCCCAGCTCCCT	0.98
TCTCCATCTGGGCCATTG	≥ 1
AGGTCTCAAATCCGATGC	≥ 1
TCATGTCCACATTCTGCA	0.81
TCCCAGCTCCCTGTAATG	≥ 1
TGGTAGCAGGGATTCTGT	≥ 1
CGATCTGCGCCAGGCTCA	0.72
GACGACTCCTTGTTCACC	≥ 1
AACCCTGGGAAATGTCCT	≥ 1
GGCTTTCTGTCCTCCACA	≥ 1
CAAGGTGCTATTGAAAGC	0.92
CAGGGATTAGGCTATGGA	≥ 1
GCAAGAATCAAAGCCAAG	≥ 1
GCCATTCTGGAATTTGGG	≥ 1

Each sequence was assayed against SRA1. Details: ASO.

Sequence	remaining target (mRNA or protein) (fraction of control)
GCTCCACGCCAGAGGCAG	0.49

What follows are sequences tested against TFRC. Details: ASO.

Sequence	remaining target (mRNA or protein) (fraction of control)
CAGCCCCGCAGGATGAAG	≥ 1
CTGTGCTGTCCAGTTTCT	0.9
AGACCAGCCCTTAGGATT	0.56
TATACCTTTACCTCCAAA	0.99
TTACAACCTTCAGCAGAG	≥ 1
TACCCAAATAAGGATAAT	≥ 1
ACTGACCAGCGACCTCTG	0.58
TGGTGCTGGTGAAGTCTG	≥ 1
TCATTTTATCCAGCAGAA	0.79
ATTAAGTAGAGGACCTGG	0.66
TTGGTTTTGTGACATTGG	0.92
GTGACACATTCAAGTGAG	≥ 1
TTTAGCATCAAATGAAGT	≥ 1
AAACCTTGAAGTTGCTGG	0.93
TCAAGTTCTCCAGTAAAG	≥ 1
AACTGGTTCTCTTTCAAT	0.95
